# Patent US8173682B2, “Substituted pyridones as inhibitors of poly(ADP-ribose) polymerase (PARP)” (Aventis Pharmaceuticals Inc., priority 2004, dated 2012)
# Structures can show the parent of a compound that is named as a salt.
# Molecular target: recombinantly expressed human PARP-1 enzyme (Homo sapiens, UniProt P09874)
# Test: PARP enzyme assay, Method B (tritium-labeled NAD incorporation)
# Format: biochemical
# Details: Method B; 200 μM NAD, room temperature 1 hour, pH 8.0; read-out: IC50 (μM)/Method B
# Method: Method B: PARP Enzyme Assay:
# The IC50 is determined in this method by incubating the substances to be tested with the DNA-activated, recombinantly expressed and purified PARP-1 enzyme. Specifically, various concentrations of the test substance are incubated in 50 μL of reaction solution, which contains 50 mM Tris, 5 mM MgCl2, 1 mM DTT, 200 μM NAD, 0.1 m Ci/mL tritium-labeled NAD, 0.1 mg/mL DNA, 0.1 mg/mL histones, 2 μg/mL recombinantly expressed human PARP-1 enzyme, pH=8.0, at room temperature for 1 hour. The reaction is stopped by adding 150 μL of 20% trichloroacetic acid, and the radiolabeled protein constituents are precipitated. After incubation on ice for 10 minutes, the labeled, insoluble constituents are separated off through a glass fiber filter and, after washing with 20% trichloroacetic acid three times, the radioactivity incorporated by the PARP-1 enzyme is measured by radioluminescence. Consideration of the incorporation rates determined in this way as a function of the concentration of the test substance results in IC50 as the concentration of the test substance which reduces the incorporation rate to half the maximum value attainable (incubation without inhibitor).
# The IC50 (fifty percent inhibitory concentration of the test substance in a solution—expressed at micromolar (μM) concentration) measured in accordance with these procedures for the compounds of this invention are summarized in Table 1.
# recombinantly expressed human PARP-1 enzyme, sequence (P09874 whole entry): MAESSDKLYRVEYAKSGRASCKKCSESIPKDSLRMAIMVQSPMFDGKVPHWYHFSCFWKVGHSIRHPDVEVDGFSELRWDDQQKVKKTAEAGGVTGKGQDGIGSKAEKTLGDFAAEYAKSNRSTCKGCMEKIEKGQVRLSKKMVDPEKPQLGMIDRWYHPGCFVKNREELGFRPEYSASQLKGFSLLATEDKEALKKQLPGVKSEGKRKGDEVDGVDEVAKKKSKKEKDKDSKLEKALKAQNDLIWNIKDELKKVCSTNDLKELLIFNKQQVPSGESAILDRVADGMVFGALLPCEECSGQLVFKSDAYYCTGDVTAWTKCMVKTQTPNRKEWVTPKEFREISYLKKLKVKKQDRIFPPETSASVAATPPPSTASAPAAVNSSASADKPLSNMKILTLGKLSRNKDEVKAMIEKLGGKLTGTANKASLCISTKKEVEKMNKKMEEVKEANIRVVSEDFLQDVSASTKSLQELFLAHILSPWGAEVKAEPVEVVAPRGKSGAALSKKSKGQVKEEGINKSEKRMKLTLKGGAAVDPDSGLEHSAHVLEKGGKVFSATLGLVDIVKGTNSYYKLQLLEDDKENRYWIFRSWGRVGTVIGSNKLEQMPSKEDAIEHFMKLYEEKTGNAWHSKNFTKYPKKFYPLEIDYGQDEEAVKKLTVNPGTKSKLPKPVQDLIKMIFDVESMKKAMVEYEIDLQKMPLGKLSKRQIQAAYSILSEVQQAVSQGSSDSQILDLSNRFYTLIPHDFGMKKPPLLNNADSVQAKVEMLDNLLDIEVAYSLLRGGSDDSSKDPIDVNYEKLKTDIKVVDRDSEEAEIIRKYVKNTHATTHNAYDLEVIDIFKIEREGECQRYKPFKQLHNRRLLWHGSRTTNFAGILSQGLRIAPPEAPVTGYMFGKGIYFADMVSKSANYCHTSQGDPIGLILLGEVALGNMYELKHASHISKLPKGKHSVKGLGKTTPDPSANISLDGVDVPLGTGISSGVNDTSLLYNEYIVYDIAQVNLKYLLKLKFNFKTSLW
row,IC50 [µM],Compound
1,0.21,"CCc1cc(-c2ccc(S(=O)(=O)NC(C)c3ccccn3)s2)c(C)[nH]c1=O (stereo not shown) [Example 43, 5-(5-Ethyl-2-methyl-6-oxo-1,6-dihydropyridin-3-yl)thiophene-2-sulfonic acid 1-(pyridin-2-yl)ethylamide hydrochloride]"
2,0.67,"CCc1cc(-c2ccc(S(=O)(=O)NCCc3ccccn3)s2)c(C)[nH]c1=O [Example 43A, 5-(5-Ethyl-2-methyl-6-oxo-1,6-dihydropyridin-3-yl)thiophene-2-sulfonic acid 2-(pyridin-2-yl)ethylamide]"
3,25.5,"CCc1cc(-c2ccc(S(=O)(=O)N3CCN(c4ncccn4)CC3)s2)c(C)[nH]c1=O [Example 117, 3-Ethyl-6-methyl-5-[5-(4-pyrimidin-2-yl-piperazine-1-sulfonyl)thiophen-2-yl]-1H-pyridin-2-one hydrochloride]"
4,1.22,"CCc1cc(-c2ccc(S(=O)(=O)NCc3ccccc3)s2)c(C)[nH]c1=O [Example 122A, 5-(5-Ethyl-2-methyl-6-oxo-1,6-dihydro-pyridin-3-yl)-thiophene-2-sulfonic acid benzylamide]"
5,0.13,"CCc1cc(-c2ccc(S(=O)(=O)NCc3ccc(OC)cc3)s2)c(C)[nH]c1=O [Example 122B, 5-(5-Ethyl-2-methyl-6-oxo-1,6-dihydro-pyridin-3-yl)-thiophene-2-sulfonic acid 4-methoxy-benzylamide]"
6,0.86,"CCc1cc(-c2ccc(S(=O)(=O)NCc3ccc(S(C)(=O)=O)cc3)s2)c(C)[nH]c1=O [Example 122C, 5-(5-Ethyl-2-methyl-6-oxo-1,6-dihydro-pyridin-3-yl)-thiophene-2-sulfonic acid 4-methanesulfonyl-benzylamide]"
7,0.06,"CCc1cc(-c2ccc(S(=O)(=O)NCc3c[nH]c4ccccc34)s2)c(C)[nH]c1=O [Example 122D, 5-(5-Ethyl-2-methyl-6-oxo-1,6-dihydro-pyridin-3-yl)-thiophene-2-sulfonic acid (1H-indol-3-ylmethyl)-amide]"
8,0.58,"CCc1cc(-c2ccc(CNCc3ccccc3)o2)c(C)[nH]c1=O [Example 123, 5-[5-(Benzylamino-methyl)-furan-2-yl]-3-ethyl-6-methyl-1H-pyridin-2-one hydrochloride]"
9,2.11,"CCc1cc(-c2ccc(CN(C)Cc3ccccc3)o2)c(C)[nH]c1=O [Example 179, 5-{5-[(Benzylmethylamino)methyl]furan-2-yl)-3-ethyl-6-methyl-1H-pyridin-2-one]"
10,2.17,CCc1cc(-c2coc(CN3CCCC3)c2)c(C)[nH]c1=O [Example 181A]
11,0.49,CCc1cc(-c2ccc(CN3CCCC3)o2)c(C)[nH]c1=O [Example 181]
12,17.4,"CCc1cc(-c2ccc(CN(Cc3ccccc3)Cc3cccnc3)o2)c(C)[nH]c1=O [Example 182A, 5-{5-[(Benzyl-pyridin-3-ylmethyl-amino)-methyl]-furan-2-yl}-3-ethyl-6-methyl-1H-pyridin-2-one]"
13,0.29,"CCc1cc(-c2ccc(CNCc3ccc(NC(C)=O)cc3)o2)c(C)[nH]c1=O [Example 182B, N-[4-({[5-(5-Ethyl-2-methyl-6-oxo-1,6-dihydro-pyridin-3-yl)-furan-2-ylmethyl]-amino}-methyl)-phenyl]-acetamide]"
14,0.28,"CCc1cc(-c2ccc(CNCCc3ccc(Cl)c(S(N)(=O)=O)c3)o2)c(C)[nH]c1=O [Example 182C, 2-Chloro-5-(2-{[5-(5-ethyl-2-methyl-6-oxo-1,6-dihydro-pyridin-3-yl)-furan-2-ylmethyl]-amino}-ethyl)-benzenesulfonamide]"
15,0.3,"CCc1cc(-c2ccc(CNCc3cnn(C)c3)o2)c(C)[nH]c1=O [Example 182D, 3-Ethyl-6-methyl-5-(5-{[(1-methyl-1H-pyrazol-4-ylmethyl)-amino]-methyl}-furan-2-yl)-1H-pyridin-2-one]"
16,1.49,"CCc1cc(-c2ccc(CNCc3ccccc3OC(F)(F)F)o2)c(C)[nH]c1=O [Example 182E, 3-Ethyl-6-methyl-5-{5-[(2-trifluoromethoxy-benzylamino)-methyl]-furan-2-yl}-1H-pyridin-2-one]"
17,1.62,"CCc1cc(-c2coc(CNCc3ccccn3)c2)c(C)[nH]c1=O [Example 182F, 3-Ethyl-6-methyl-5-(5-{[(pyridin-2-ylmethyl)-amino]-methyl}-furan-3-yl)-1H-pyridin-2-one]"
18,3.33,"CCc1cc(-c2cccc(CN3CCCC3)n2)c(C)[nH]c1=O [Example 182G, 5′-Ethyl-2′-methyl-6-pyrrolidin-1-ylmethyl-1′H-[2,3′]bipyridinyl-6′-one]"
19,1.11,"CCc1cc(-c2cccc(CNCc3ccccn3)n2)c(C)[nH]c1=O [Example 182H, 5′-Ethyl-2′-methyl-6-{[(pyridin-2-ylmethyl)-amino]-methyl}-1′H-[2,3′]bipyridinyl-6′-one]"

row,IC50 [µM],Compound
1,8.61,"CCc1cc(-c2cccc(CN3CCC(O)CC3)n2)c(C)[nH]c1=O [Example 182I, 5′-Ethyl-6-(4-hydroxy-piperidin-1-ylmethyl)-2′-methyl-1′H-[2,3′]bipyridinyl-6′-one]"
2,14.6,"CCc1cc(-c2cccc(CN3CCN(C(C)=O)CC3)n2)c(C)[nH]c1=O [Example 182J, 6-(4-Acetyl-piperazin-1-ylmethyl)-5′-ethyl-2′-methyl-1′H-[2,3′]bipyridinyl-6′-one]"
3,4.23,"CCc1cc(-c2cccc(CN3CCC(N4CCCC4)CC3)n2)c(C)[nH]c1=O [Example 182K, 5′-Ethyl-2′-methyl-6-(4-pyrrolidin-1-yl-piperidin-1-ylmethyl)-1′H-[2,3′]bipyridinyl-6′-one]"
4,0.18,"CCc1cc(-c2ccc(C=NOCCN3CCCC3)o2)c(C)[nH]c1=O [Example 199, 3-Ethyl-2-methyl-6-oxo-1,6-dihydropyridin-3-yl)furan-2-carbaldehyde O-(2-pyrrolidin-1-ylethyl)oxime hydrochloride]"
5,0.51,"CCc1cc(-c2ccc(C=NO)o2)c(C)[nH]c1=O [Example 199A, 5-(5-Ethyl-2-methyl-6-oxo-1,6-dihydro-pyridin-3-yl)-furan-2-carbaldehyde oxime]"
6,1.03,"CCc1cc(-c2ccc(CO)o2)c(C)[nH]c1=O [Example 200A, 3-Ethyl-5-(5-hydroxymethyl-furan-2-yl)-6-methyl-1H-pyridin-2-one]"
7,1.35,"CCc1cc(-c2ccc(C(=O)N3CCN(c4ccccc4)CC3)o2)c(C)[nH]c1=O [Example 201, 3-Ethyl-6-methyl-5-[5-(4-phenyl-piperazine-1-carbonyl)-furan-2-yl]-1H-pyridin-2-one]"
8,0.57,"CCc1cc(-c2cccc(C(=O)NCCc3ccc([N+](=O)[O-])cc3)n2)c(C)[nH]c1=O [Example 205, 5′-Ethyl-2′-methyl-6′-oxo-1′,6′-dihydro-[2,3′]bipyridinyl-6-carboxylic acid [2-(4-nitro-phenyl)-ethyl]-amide]"
9,1.14,"CCCCNC(=O)c1cccc(-c2cc(CC)c(=O)[nH]c2C)n1 [Example 206, 5′-Ethyl-2′-methyl-6′-oxo-1′,6′-dihydro-[2,3′]bipyridinyl-6-carboxylic acid butylamide]"
10,4.72,"CCc1cc(-c2cccc(C(=O)N3CCCC3)n2)c(C)[nH]c1=O [Example 207, 5′-Ethyl-2′-methyl-6-(pyrrolidine-1-carbonyl)-1′H-[2,3′]bipyridinyl-6′-one]"
11,14.8,"CCc1cc(-c2ccc(C(=O)NCc3ccccn3)cn2)c(C)[nH]c1=O [Example 208, 5′-Ethyl-2′-methyl-6′-oxo-1′,6′-dihydro-[2,3′]bipyridinyl-5-carboxylic acid (pyridin-2-ylmethyl)-amide]"
12,13,"CCCCNC(=O)c1ccc(-c2cc(CC)c(=O)[nH]c2C)nc1 [Example 209, 5′-Ethyl-2′-methyl-6′-oxo-1′,6′-dihydro-[2,3′]bipyridinyl-5-carboxylic acid butylamide]"
13,12.1,"CCc1cc(-c2ccc(C(=O)N3CCC(O)C3)cn2)c(C)[nH]c1=O (stereo not shown) [Example 210, 5′-Ethyl-5-(3-hydroxy-pyrrolidine-1-carbonyl)-2′-methyl-1′H-[2,3′]bipyridinyl-6′-one]"
14,8.6,"CCc1cc(-c2ccc(C(=O)N3CCCC3)cn2)c(C)[nH]c1=O [Example 211, 5′-Ethyl-2′-methyl-5-(pyrrolidine-1-carbonyl)-1′H-[2,3′]bipyridinyl-6′-one]"
15,12.9,"CCc1cc(-c2ccc(C(=O)NC3CCCC3)cn2)c(C)[nH]c1=O [Example 212, 5′-Ethyl-2′-methyl-6′-oxo-1′,6′-dihydro-[2,3′]bipyridinyl-5-carboxylic acid cyclopentylamide]"
16,0.21,"CCc1cc(-c2cc(C(=O)NCCc3ccc([N+](=O)[O-])cc3)ccn2)c(C)[nH]c1=O [Example 213, 5′-Ethyl-2′-methyl-6′-oxo-1′,6′-dihydro-[2,3′]bipyridinyl-4-carboxylic acid [2-(4-nitro-phenyl)-ethyl]-amide]"
17,1.4,"CCc1cc(-c2cc(C(=O)N3CCCC3)ccn2)c(C)[nH]c1=O [Example 214, 5′-Ethyl-2′-methyl-4-(pyrrolidine-1-carbonyl)-1′H-[2,3′]bipyridinyl-6′-one]"
18,1.25,"CCCCNC(=O)c1ccnc(-c2cc(CC)c(=O)[nH]c2C)c1 [Example 215, 5′-Ethyl-2′-methyl-6′-oxo-1′,6′-dihydro-[2,3′]bipyridinyl-4-carboxylic acid butylamide]"
